Experimental data as given in patent publication US11851696B2, “Microorganisms and process for producing glycolic acid from pentoses and hexoses” (Institut National Des Sciences Appliquées De Toulouse, priority 2018, dated 2023).

Tests used:
[1] = system: fructose-6-phosphate aldolase (FSA); details: aldolytic activity on D-arabinose-5-phosphate vs fructose-6-phosphate; cited from earlier work
[2] = target: T1, E. coli K12 MG1655 aldehyde dehydrogenase (glycolaldehyde dehydrogenase, AldA), polyhistidine-tagged (aldA-His), wild type, SEQ ID NO: 4 (Escherichia coli, UniProt P25553); assay: AldA (aldehyde dehydrogenase) activity on glycolaldehyde, NADH at 340 nm; type: biochemical
T1 sequence (P25553 1-479): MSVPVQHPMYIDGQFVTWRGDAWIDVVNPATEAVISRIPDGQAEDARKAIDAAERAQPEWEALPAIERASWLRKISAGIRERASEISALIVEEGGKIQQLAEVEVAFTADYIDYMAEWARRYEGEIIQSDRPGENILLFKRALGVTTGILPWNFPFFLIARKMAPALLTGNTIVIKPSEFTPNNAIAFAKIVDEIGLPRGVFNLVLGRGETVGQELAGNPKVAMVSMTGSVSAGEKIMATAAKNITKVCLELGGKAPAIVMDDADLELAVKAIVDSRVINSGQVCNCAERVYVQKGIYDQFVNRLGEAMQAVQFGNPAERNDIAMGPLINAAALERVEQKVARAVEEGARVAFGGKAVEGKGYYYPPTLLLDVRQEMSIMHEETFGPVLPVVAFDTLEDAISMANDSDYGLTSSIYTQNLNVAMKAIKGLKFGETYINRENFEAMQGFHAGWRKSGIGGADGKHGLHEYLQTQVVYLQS
From the text: To construct a system in vitro, the inventors have cloned the ORFs (“Open Reading Frames”) of the xylose isomerase (XylA), xylulokinase (XylB), arabinose isomerase (AraA), ribulose kinase (AraB), L-ribulose-5-phosphate 4-epimerase (AraD), ribulose-5-phosphate-3-epimerase (RPE), D-arabinose-5-phosphate isomerase (KdsD), fructose-6-phosphate aldolase (FSA corresponding to FSAA such as previously defined) and aldehyde dehydrogenase (AdA) of E. coli K12 MG1655 with a polyhistidine tag for a facilitated purification. […] The E. coli genomic DNA which served as on template is that of the strain K12 MG1655.
A pre-culture in a LB (for “Luria-Bertani”) medium added with the antibiotic kanamycin is made overnight at 37° C. The pre-culture is used to seed a fresh culture of 200 mL of LB-Kanamycin at an optical density at 600 nm (OD600) of 0.1 (37° C., 200 rpm). When the OD600 is between 0.6 and 0.8, the expression of the protein of interest is induced by adding finally 1 mM IPTG. The proteins are expressed overnight at 16° C. The cells are collected as 50 ml fractions and centrifuged at 4 800 rpm for 15 min at 4° C. The cell pellets are preserved at −20° C. […]
Measurement of the aldehyde dehydrogenase (AldA) activity: this activity has been measured in the presence of 5 mM glycoaldehyde, 3 mM NAD^+ and 3 mM ATP. […]

[3] = substrate: O=CCO; assay: purified protein, by the assay type; details: other: substrate glycolaldehyde, 100 mM Tris, pH 7.5, 10 mM MgCl2, 37° C., 3 mM NAD+, 3 mM ATP
[4] = substrate: O=P(O)(O)OC[C@H]1OC(O)[C@@H](O)[C@@H]1O; assay: FSA (fructose-6P aldolase) activity on D-arabinose-5P, coupled to AldA or to TPI and G3PDH, NADH at 340 nm; type: biochemical, Escherichia coli K12 MG1655; details: other: substrate D-arabinose-5P, 100 mM Tris, pH 7.5, 10 mM MgCl2, 37° C., coupled to AldA (2 mM NAD+) or TPI/G3PDH (0.4 mM NADH)
From the text: To construct a system in vitro, the inventors have cloned the ORFs (“Open Reading Frames”) of the xylose isomerase (XylA), xylulokinase (XylB), arabinose isomerase (AraA), ribulose kinase (AraB), L-ribulose-5-phosphate 4-epimerase (AraD), ribulose-5-phosphate-3-epimerase (RPE), D-arabinose-5-phosphate isomerase (KdsD), fructose-6-phosphate aldolase (FSA corresponding to FSAA such as previously defined) and aldehyde dehydrogenase (AdA) of E. coli K12 MG1655 with a polyhistidine tag for a facilitated purification. The oligonucleotides used for amplifying ORFS of the E. coli enzymes are listed in Table 3 below, the sequences SEQ ID NO: making reference to the appended sequence listing. The E. coli genomic DNA which served as on template is that of the strain K12 MG1655.
The plasmids for the expression of the C-terminal polyhistidine tagged proteins XylA, XylB, AraA, AraB, AraD, AraB, Rpe, KdsD, FSA, AdA have been constructed by HiFi Assembly® (NEB) with pET28a as a receiving vector. pET28a has been linearised beforehand with the restriction enzymes HindIII and BamHI (NEB) (Table 4). The E. coli strain NEB5®, derived from DH5 alpha, has been used for cloning and storing the different plasmids.
All the proteins expressed are soluble and have been produced from the expression vector pET28a transformed in an E. coli strain BL21 (DE3). […]

In the case of `O=P(O)(O)OC[C@H]1OC(O)[C@@H](O)[C@@H]1O` (stereo partly drawn) [D-arabinose-5P, D-arabinose-5-phosphate], the “affinity (times higher than for fructose-6-phosphate)” value [1] is listed as 10 times.

With `O=CCO` [glycolaldehyde] the Vmax ([2]; substrate glycolaldehyde (5 mM glycoaldehyde in method), 100 mM Tris, pH 7.5, 10 mM MgCl2, 37° C., 3 mM NAD+, 3 mM ATP) was 1.16 ± 0.31 U mg^−1 and the Vmax/Km ([2]; substrate glycolaldehyde, pH 7.5, 37° C.) was 5 552 .10^−6 min^−1 mg^−1.

B1: E. coli K12 MG1655 aldehyde dehydrogenase (glycolaldehyde dehydrogenase, AldA), polyhistidine-tagged (aldA-His), wild type, SEQ ID NO: 4 (Escherichia coli K-12) (protein)
chain: T1 sequence (P25553 1-479)
Molecule B1 has a Km [3] of 210 ± 50 µM.

B2: E. coli K12 MG1655 fructose-6-phosphate aldolase (FSA, FSAA), polyhistidine-tagged (FSA-His), wild type, SEQ ID NO: 2 (Escherichia coli K-12) (protein)
chain: MELYLDTSDVVAVKALSRIFPLAGVTTNPSIIAAGKKPLDVVLPQLHEAMGGQGRLFAQVMATTAEGMVNDALKLRSIIADIVVKVPVTAEGLAAIKMLKAEGIPTLGTAVYGAAQGLLSALAGAEYVAPYVNRIDAQGGSGIQTVTDLHQLLKMHAPQAKVLAASFKTPRQALDCLLAGCESITLPLDVAQQMISYPAVDAAVAKFEQDWQGAFGRTSI
B2 gave a Km [4] of 652 ± 150 µM and a Vmax [4] of 0.26 µmol/min/mg.
